Reference: patent publication US20160206629A1, “TOPICAL COMPOSITION COMPRISING A FILM-FORMING POLYMER FOR DELIVERING AN ACTIVE INGREDIENT TO SKIN” (LEO Pharma A/S, priority 2012, published 2016)

Test: In vitro skin penetration, full thickness pig ear skin, Franz-type diffusion cells, 3H-BMV
Assay type: in vitro ADME
Description: To investigate the skin penetration and permeation of BMV from compositions according to example 1, a skin diffusion experiment was conducted. Full thickness skin from pig ears was used in the study. The skin was cleaned and kept frozen at −18° C. before use. On the day prior to the experiment the skin was placed in a refrigerator (5±3° C.) for slow defrosting.
Static Franz-type diffusion cells with an available diffusion area of 3.14 cm^2 and receptor volumes ranging from 8.6 to 11.1 ml were used in substantially the manner described by T. J. Franz, “The finite dose technique as a valid in vitro model for the study of percutaneous absorption in man”, in Current Problems in Dermatology, 1978, J. W. H. Mall (Ed.), Karger, Basel, pp. 58-68. The specific volume was measured and registered for each cell. A magnetic bar was placed in the receptor compartment of each cell. After mounting the skin, physiological saline (35° C.) was filled into each receptor chamber for hydration of the skin. The cells were placed in a thermally controlled water bath which was placed on a magnetic stirrer set at 300 rpm. […]
Samples (1 ml) of the receptor fluid remaining in the diffusion cell were collected and analysed.
The concentration of ^3H-BMV in the samples were determined by liquid scintillation counting.

- permeation of BMV into the receptor medium (receptor medium acetate buffer pH 5.5 with 1% methyl-β-cyclodextrin): None
Structure (SMILES): CCCCC(=O)O[C@]1(C(=O)CO)[C@@H](C)C[C@H]2[C@@H]3CCC4=CC(=O)C=C[C@]4(C)[C@@]3(F)[C@@H](O)C[C@@]21C [BMV, betamethasone valerate]
- accumulation of BMV in skin layers (stratum corneum versus epidermis, FIG. 3): mainly accumulated in the stratum corneum
